Experimental data: patent US11420961B2, “Heterocyclic compounds” (Hoffmann-La Roche Inc., priority 2017, dated 2022)

Target: T1, MAGL (Homo sapiens, UniProt Q99685)
T1 sequence (Q99685 1-303): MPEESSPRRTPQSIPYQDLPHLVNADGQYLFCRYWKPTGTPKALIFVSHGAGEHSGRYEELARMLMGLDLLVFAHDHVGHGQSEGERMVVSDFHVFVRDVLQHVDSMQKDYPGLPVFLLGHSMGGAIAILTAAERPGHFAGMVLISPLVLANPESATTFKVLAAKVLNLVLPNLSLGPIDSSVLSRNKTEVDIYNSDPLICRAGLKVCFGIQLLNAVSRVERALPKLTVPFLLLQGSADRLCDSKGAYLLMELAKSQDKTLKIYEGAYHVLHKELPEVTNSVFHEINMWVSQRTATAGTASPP
Experiment: 2-AG assay: MAGL inhibitory activity by hydrolysis of 2-arachidonoylglycerol to arachidonic acid, mass spectrometry
Assay type: biochemical
Details: 2-AG assay (values marked [a])
Experimental: Alternatively, compounds were profiled for MAGL inhibitory activity by determining the enzymatic activity by following the hydrolysis of the natural substrate, 2-arachidonoylglycerol, resulting in arachidonic acid, which can be followed by mass spectrometry. This assay is hereinafter abbreviated “2-AG assay”.
The 2-AG assay was carried out in 384 well assay plates (PP, Greiner Cat #784201) in a total volume of 20 μL. Compound dilutions were made in 100% DMSO (VWR Chemicals 23500.297) in a polypropylene plate in 3-fold dilution steps to give a final concentration range in the assay from 12.5 μM to […]. 0.25 μL compound dilutions (100% DMSO) were added to 9 μL MAGL in assay buffer (50 mM TRIS (GIBCO, 15567-027), 1 mM EDTA (Fluka, 03690-100 ml), 0.01% (v/v) Tween. After shaking, the plate was incubated for 15 min at RT. To start the reaction, 10 μL 2-arachidonoylglycerol in assay buffer was added. The final concentrations in the assay was […] and 8 μM 2-arachidonoylglyerol. After shaking and 30 min incubation at RT, the reaction was quenched by the addition of 40 μL of acetonitrile containing 4 μM of d8-arachidonic acid. The amount of arachidonic acid was traced by an online SPE system (Agilent Rapidfire) coupled to a triple quadrupole mass spectrometer (Agilent 6460). A C18 SPE cartridge (G9205A) was used in an acetonitrile/water liquid setup. The mass spectrometer was operated in negative electrospray mode following the mass transitions 303.1→259.1 for arachidonic acid and 311.1→267.0 for d8-arachidonic acid. The activity of the compounds was calculated based on the ratio of intensities [arachidonic acid/d8-arachidonic acid].

Row | SMILES | IC50 [nM]
1 | COc1cc(C(c2ccccc2)C2CCN(C(=O)c3ccc4c(c3)NC(=O)CO4)CC2)ccc1OCCF (single isomer, unassigned) [Example 138, 6-[4-[(S or R)-[4-(2-Fluoroethoxy)-3-methoxy-phenyl]-phenyl-methyl]piperidine-1-carbonyl]-4H-1,4-benzoxazin-3-one] | 9.41
2 | COc1cc(C(c2ccccc2)C2CCN(C(=O)c3ccc4c(c3)NC(=O)CO4)CC2)ccn1 (single isomer, unassigned) [Example 137, 6-[4-[(R or S)-(2-Methoxy-4-pyridyl)-phenyl-methyl]piperidine-1-carbonyl]-4H-1,4-benzoxazin-3-one] | 0.24
3 | O=C1COc2ccc(C(=O)N3CC(C(c4ccccc4)c4ccccc4)C3)cc2N1 [Example 124, 6-(3-Benzhydrylazetidine-1-carbonyl)-4H-1,4-benzoxazin-3-one] | 258

The next lines start with the values.

Row | IC50 [nM] | SMILES
4 | 79.3 | Cn1ccc(C(c2ccccc2)C2CCN(C(=O)c3ccc4c(c3)NC(=O)CO4)CC2)cc1=O (single isomer, unassigned) [Example 143, 6-[4-[(R or S)-(1-Methyl-2-oxo-4-pyridyl)-phenyl-methyl]piperidine-1-carbonyl]-4H-1,4-benzoxazin-3-one]
5 | 6.68 | Cn1cc(C(c2ccccc2)C2CCN(C(=O)c3ccc4c(c3)NC(=O)CO4)CC2)cn1 (single isomer, unassigned) [Example 141, 6-[4-[(R or S)-(1-Methylpyrazol-4-yl)-phenyl-methyl]piperidine-1-carbonyl]-4H-1,4-benzoxazin-3-one]
